Laboratory results reported in patent US5071859A, “N-substituted azaheterocyclic carboxylic acids and pharmaceutical uses” (priority 1988, dated 1991).
Counter-ions that a name gives are not always drawn.

Tests used:
[^3 H]-GABA uptake = in vitro inhibition of [^3 H]-GABA uptake (method of Fjalland); type: biochemical, Male Wistar rat (cortical tissue); details: rat cortical tissue homogenate; 60 min at 30° C.; pH 7.5; ligand 0.2 nM
Protocol: Male Wistar rat cortical tissue was gently homogenized by hand using a glass/PTFE homogenizer in 10 volumes of 0.32 M sucrose. Incubation was performed in a 40 mM tris HCl buffer (pH 7.5 at 30° C.) containing […], […], 4 mM MgSO4, 2.3 mM CaCl2 and 10 mM glucose, for 60 min. at 30° C. Ligand concentration was 0.2 nM.

GABA uptake = details: oral; cited from earlier work
[1] = system: GABA uptake from the synaptic cleft into presynaptic nerve terminals and glial cells; details: cited from earlier work

| IC50 ([^3 H]-GABA uptake) [nM] | SMILES | orally active inhibitors of GABA uptake (GABA uptake) | further results |
| --- | --- | --- | --- |
| 8 | Cc1ccsc1C(=COCCN1CCC[C@@H](C(=O)O)C1)c1sccc1C [Example 12, (R)-1-[2-[[2,2-bis(3-Methyl-2-thienyl)ethenyl]oxy]ethyl]-3-piperidine carboxylic acid] |  |  |
| 26 | Cc1ccccc1C(=COCCN1CCC=C(C(=O)O)C1)c1ccccc1C [Example 13, 1-[2-[[2,2-bis(2-Methylphenyl)ethenyl]oxy]ethyl]-1,2,5,6-tetrahydro-3-pyridine carboxylic acid hydrochloride] |  |  |
| 30 | Cc1ccccc1C(=COCCN1CCC[C@@H](C(=O)O)C1)c1ccc(F)cc1C [Example 14, (R)-1-[2-[[2-(4-Fluoro-2-methylphenyl)-2-(2-methylphenyl)ethenyl]oxy]ethyl]-3-piperidine carboxylic acid hydrochloride] |  |  |
| 15 | Cc1ccccc1C(=COCCN1CCC[C@@H](C(=O)O)C1)c1ccccc1C [Example 17, (R)-1-[2-[[2,2-bis(2-Methylphenyl)ethenyl]oxy]ethyl]-3-piperidine carboxylic acid hydrochloride] |  |  |
| 47 | CCc1ccccc1C(=COCCN1CCC=C(C(=O)O)C1)c1ccccc1CC [Example 23, 1-[2-[[2,2-bis(2-Ethylphenyl)ethenyl]oxy]ethyl]-1,2,5,6-tetrahydro-3-pyridine carboxylic acid hydrochloride] |  |  |
| 12 | Cc1ccccc1C(=COCCN1CCC[C@@H](C(=O)O)C1)c1ccccc1Cl [Example 30, (R)-1-[2-[[2-(2-Chlorophenyl)-2-(2-methylphenyl)ethenyl]oxy]ethyl]-3-piperidine carboxylic acid hydrochloride] |  |  |
| 127 | O=C(O)[C@@H]1CCCN(CCOCC(c2ccccc2)c2ccccc2)C1 [Example 33, (R)-1-[2-[[2,2-Diphenylethyl]oxy]ethyl]-3-piperidine carboxylic acid] |  |  |

Continued, compound first:

| SMILES | IC50 ([^3 H]-GABA uptake) [nM] | orally active inhibitors of GABA uptake (GABA uptake) | further results |
| --- | --- | --- | --- |
| O=C(O)[C@@H]1CCCN(CCOC=C(c2ccccc2)c2ccccc2)C1 [Example 2, (R)-1-[2-[[2,2-Diphenylethenyl]oxy]ethyl]-3-piperidine carboxylic acid hydrochloride] | 104 |  |  |
| O=C(O)C1CCCN(CCC=C(c2ccccc2)c2ccccc2)C1 (stereo not shown) [SK&F 89976A, N-(4,4-diphenyl-3-butenyl)nipecotic acid] |  | orally active inhibitors of GABA uptake |  |
| O=C(O)C1=CCCN(CCC=C(c2ccccc2)c2ccccc2)C1 [SK&F 100330A, N-(4,4-diphenyl-3-butenyl)guvacine] |  | orally active inhibitors of GABA uptake |  |
| O=C(O)CC1CCN(CCC=C(c2ccccc2)c2ccccc2)C1 (stereo not drawn) [SK&F 100561, N-(4,4-diphenyl-3-butenyl)homo-β-proline] |  | orally active inhibitors of GABA uptake |  |
| O=C(O)C1CCCN(CCC=C(c2ccccc2)c2cccs2)C1 (stereo not shown) [SK&F 100604J, N-(4-phenyl-4-(2-thienyl)-3-butenyl)nipecotic acid] |  | orally active inhibitors of GABA uptake |  |
| O=C(O)C1CCCNC1 (stereo not shown) [nipecotic acid, piperidine-3-carboxylic acid] |  |  | inhibitor of GABA uptake from the synaptic cleft [1]: potent inhibitor of GABA uptake |
